Earlier results, collected in patent publication US10647856B2, “Mold resistant formable cork” (THE BOEING COMPANY, priority 2016, dated 2020).
Converted amounts (≈) assume the structure as drawn.

In the case of `O=[N+]([O-])c1ccc(O)cc1` [para-nitrophenol], the water solubility is listed as 16 mg/mL (≈ 115 mM).
